The record followed here is patent US6875784B2, “Antimibicrobial [3.1.0.] bicyclic oxazolidinone derivatives” (priority 2002, dated 2005).

≈ marks a conversion by molar mass, not a printed value. Like-named read-outs stand apart in the source and are kept apart here.

Assay type in all cases: cell-based
The test system of assay [1] is H. influenzae 30063. The assay can be described thus: MIC by agar dilution, H. influenzae 30063. The source says: (§1) The in vitro activity of compounds of the subject invention may be assessed by standard testing procedures such as the determination of minimum inhibitory concentration (MIC) by agar dilution as described in “Approved Standard. Methods for Dilution Antimicrobial Susceptibility Tests for Bacteria that Grow Aerobically,” 3rd ed., published 1993 by the National Committee for Clinical Laboratory standards, Villanova, Pa., USA.
(§2) The in vitro MICs of test compounds may be determined by a standard agar dilution method. A stock drug solution of each analog is prepared in a preferred solvent, usually DMSO:H2O (1:3). Serial 2-fold dilutions of each sample are made using 1.0 ml aliquots of sterile distilled water. To each 1.0 ml aliquot of drug is added 9 ml of molten Mueller Hinton agar medium. The drug-supplemented agar is mixed, poured into 15×100 mm petri dishes, and allowed to solidify and dry prior to inoculation.
(§3) Vials of each of the test organisms are maintained frozen in the vapor phase of a liquid nitrogen freezer. Test cultures are grown overnight at 35° C. on the medium appropriate for the organism. Colonies are harvested with a sterile swab, and cell suspensions are prepared in Trypticase Soy broth (TSB) to equal the turbidity of a 0.5 McFarland standard. A 1:20 dilution of each suspension is made in TSB. The plates containing the drug supplemented agar are inoculated with a 0.001 ml drop of the cell suspension using a Steers replicator, yielding approximately 10^4 to 10^5 cells per spot. The plates are incubated overnight at 35° C.
(§4) Following incubation the Minimum Inhibitory Concentration (MIC μg/ml), the lowest concentration of drug that inhibits visible growth of the organism, is read and recorded.
(§5) The in vitro MICs of test compounds were determined by a standard agar dilution method. A stock drug solution of each analog was prepared in the preferred solvent, usually DMSO:H2O (1:3). Serial 2-fold dilutions of each sample are made using 1.0 ml aliquots of sterile distilled water. To each 1.0 ml aliquot of drug was added 9 ml of molten Mueller Hinton agar medium The drug-supplemented agar was mixed, poured into 15×100 mm petri dishes, and allowed to soldify and dry prior to inoculation.
(§6) Vials of each of the test organisms are maintained frozen in the vapor phase of a liquid nitrogen freezer. Test cultures are grown overnight at 35° C. on the medium appropriate for the organism. Colonies are harvested with a sterile swab, and cell suspensions are prepared in Trypticase Soy broth (TSB) to equal the turbidity of a 0.5 McFarland standard. A 1:20 dilution of each suspension was made in TSB. The plates containing the drug supplemented agar are inoculated with a 0.001 ml drop of the cell suspension using a Steers replicator, yielding approximately 10^4 to 10^5 cells per spot. The plates are incubated overnight at 35° C. Following incubation the Minimum Inhibitory Concentration (MIC μg/ml), the lowest concentration of drug that inhibits visible growth of the organism, was read and recorded.
A general note: In agar dilution the substance is mixed into plates at graded concentrations.

Assay [2] deals with S. aureus UC9213. The assay is described as follows: MIC by agar dilution, S. aureus UC9213. The following applies: Staphylococcus aureus.
Source text: as §1, §2, §3, §4, §5, §6

Assay [3] relates to S. pneumoniae UC9912. The assay can be described thus: MIC by agar dilution, S. pneumoniae UC9912. As to conditions: Streptococcus pneumoniae.
Source text: as §1, §2, §3, §4, §5, §6

Setting [4] is: Haemophilus influenzae, 30063, read-out: MIC against H. influenza (30063).
The mark [5] stands for this setting: UC9213, agar dilution, Mueller Hinton agar, overnight at 35° C., read-out: S. aureus UC9213 MIC.
Setting [6] is: Haemophilus influenzae, 30063, agar dilution, Mueller Hinton agar, overnight at 35° C., read-out: H. influenzae 30063 MIC.
Setting [7] is: UC9912, agar dilution, Mueller Hinton agar, overnight at 35° C., read-out: S. pneumoniae UC9912 MIC.

Take `CC(=O)NC[C@H]1CN(c2cc(F)c(N3C[C@@H]4[C@H](C3)[C@H]4C(=O)N(C)C)c(F)c2)C(=O)O1` [Example 3]: the MIC in assay [1] (setting [4]) is more than 64 µg/mL.

Take `CCN(CC)C(=O)COC(=O)[C@H]1[C@@H]2CN(c3c(F)cc(N4C[C@H](CNC(=O)C(Cl)Cl)OC4=O)cc3F)C[C@@H]21` [Example 13, 2-(diethylamino)-2-oxoethyl exo-(1R,5S)-3-[4-((5S)-5-{[(dichloroacetyl)amino]methyl}-2-oxo-1,3-oxazolidin-3-yl)-2,6-difluorophenyl]-3-azabicyclo[3.1.0]hexane-6-carboxylate]: the MIC in assay [1] (setting [4]) is more than 64 µg/mL.

`COC(=O)[C@H]1[C@@H]2CN(c3c(F)cc(N4C[C@H](CNC(=O)C(F)F)OC4=O)cc3F)C[C@@H]21` [Example 16, methyl exo-(1R,5S)-3-[4-((5S)-5-{[(difluoroacetyl)amino]methyl}-2-oxo-1,3-oxazolidin-3-yl)-2,6-difluorophenyl]-3-azabicyclo[3.1.0]hexane-6-carboxylate]: in assay [1] (setting [4]), the MIC was more than 64 µg/mL.

In the case of `CCN(CC)C(=O)COC(=O)[C@H]1[C@@H]2CN(c3c(F)cc(N4C[C@H](CNC(=O)C(F)F)OC4=O)cc3F)C[C@@H]21` [Example 17], in assay [1] (setting [4]), the MIC was more than 64 µg/mL.

Turning to `CC(=O)NC[C@H]1CN(c2cc(F)c(N3C[C@@H]4[C@H](C3)[C@H]4NC(=O)Nc3ccccc3)c(F)c2)C(=O)O1` [Example 28, N-{[(5S)-3-(4-{exo-(1R,5S)-6-[(anilinocarbonyl)amino]-3-azabicyclo[3.1.0]hex-3-yl}-3,5-difluorophenyl)-2-oxo-1,3-oxazolidin-5-yl]methyl}acetamide], the MIC in assay [1] (setting [4]) was more than 64 µg/mL.

Turning to `CC(=O)NC[C@H]1CN(c2cc(F)c(N3CC4OC4C3)c(F)c2)C(=O)O1` (stereo partly shown) [Example 40], the values for the MIC in assay [2] (setting [5]), in assay [1] (setting [6]) and in assay [3] (setting [7]) were 1 µg/mL (≈ 2.83 µM), 8 µg/mL (≈ 22.6 µM) and 0.5 µg/mL (≈ 1.42 µM), respectively.

As to `CCC(=O)NC[C@H]1CN(c2cc(F)c(N3CC4OC4C3)c(F)c2)C(=O)O1` (stereo partly drawn) [Example 41, N-({(5S)-3-[3,5-difluoro-4-(6-oxa-3-azabicyclo[3.1.0]hex-3-yl)phenyl]-2-oxo-1,3-oxazolidin-5-yl}methyl)propanamide], the MIC in assay [2] (setting [5]) turned out to be 2 µg/mL (≈ 5.44 µM); in assay [1] (setting [6]), 16 µg/mL (≈ 43.6 µM); in assay [3] (setting [7]), 0.5 µg/mL (≈ 1.36 µM).

Turning to `CC(=O)NC[C@H]1CN(c2ccc(N3CC4NC4C3)c(F)c2)C(=O)O1` (stereo partly shown) [Example 49], the MIC in assay [2] (UC9213, read-out: S. aureus UC9213 MIC, μg/mL) stood at 4 µg/mL (≈ 12 µM); in assay [1] (Haemophilus influenzae, 30063, read-out: H. influenzae 30063 MIC, μg/mL), 8 µg/mL (≈ 23.9 µM); in assay [3] (UC9912, read-out: S. pneumoniae UC9912 MIC, μg/mL), 0.5 µg/mL (≈ 1.5 µM).

With `CC(=O)NC[C@H]1CN(c2ccc(N3CC4C(C3)N4C(C)=O)c(F)c2)C(=O)O1` (stereo partly drawn) [Example 50, N-({(5S)-3-[4-(6-acetyl-3,6-diazabicyclo[3.1.0]hex-3-yl)-3-fluorophenyl]-2-oxo-1,3-oxazolidin-5-yl]methyl)acetamide], the MIC in assay [2] (setting [5]) was found to be 8 µg/mL (≈ 21.3 µM); in assay [1] (setting [6]) it was 64 µg/mL (≈ 170 µM); in assay [3] (setting [7]), 2 µg/mL (≈ 5.31 µM).

For the compound `COCC(=O)N1C2CN(c3ccc(N4C[C@H](CNC(C)=O)OC4=O)cc3F)CC21` (stereo partly drawn) [Example 51, N-({(5S)-3-[4-(6-methoxyacetyl-3,6-diazabicyclo[3.1.0]hex-3-yl)-3-fluorophenyl]-2-oxo-1,3-oxazolidin-5-yl}methyl)acetamide], the values for the MIC in assay [2] (setting [5]), in assay [1] (setting [6]) and in assay [3] (setting [7]) were 8 µg/mL (≈ 19.7 µM), 32 µg/mL (≈ 78.7 µM) and 2 µg/mL (≈ 4.92 µM), respectively.

In the case of `CC(=O)NC[C@H]1CN(c2ccc(N3CC4C(C3)N4C(=O)COC(C)=O)c(F)c2)C(=O)O1` (stereo partly drawn) [Example 52, 2-[3-(4-(5S)-5-[(acetylamino)methyl]-2-oxo-1,3-oxazolidin-3-yl}2-fluorophenyl)-3,6-diazabicyclo[3.1.0]hex-6-yl]-2-oxoethyl acetate], the MIC came out at 1 µg/mL in assay [2] (setting [5]), 32 µg/mL in assay [1] (setting [6]) and 1 µg/mL in assay [3] (setting [7]).

In the case of `CC(=O)NC[C@H]1CN(c2ccc(N3CCOCC3)c(F)c2)C(=O)O1` [linezolid, reference compound], the MIC in assay [1] (setting [4]) came to 16 µg/mL (≈ 47.4 µM); in assay [3] (UC9912, read-out: MIC against S. pneumoniae (UC 9912)), 1 µg/mL (≈ 2.96 µM).
